# Data: patent US10111877B2, “Modulators of androgen synthesis” (Tangent Reprofiling Limited, priority 2012, dated 2018)
# Key:
# [1] = test system: PC-3M-luc cells; test: Orthotopic prostate tumor mouse xenograft model; conditions: single drug
# Procedure: Immunodeficeint male mice (athymic nude mice) were acclimated to the laboratory for at least one week prior to implantation of tumor. PC-3M-luc cells obtained directly from in vitro culture were then injected into the prostate on Day 0. Animals were divided into six groups of 12 mice each. Primary tumor size and metastases were assessed by bioluminescence measurements on day 6, 13, 20, 27, 34, and 40. On day 7 a five week treatment regime was initiated. Both individual drug and high and low dose combination were examined by administering the drugs twice daily on an individual body weight basis using a dose escalation protocol (Table 7). If tumors grew above a pre-determined level, or mice lost more than 10% of bodyweight, they were culled. The primary tumor was excised, weighed and measured. Individual organs were imaged to assess metastatic burden.
# [2] = test system: OVCAR-3 cells; test: Cell growth inhibition, lysed cell LDH assay, ovarian cancer cell line; type: cell-based; conditions: 50 μM Risperidone and/or 50 μM CLA, 1 μM Testosterone (T) where added, 96 hours
# Procedure: (§1) To determine whether Risperidone could be effective in inhibiting growth of cancer cells overexpressing HSD10, a lysed cell LDH assay was conducted using cells taken from a prostate cancer cell line, a lung cancer cell line, a breast cancer cell line, an ovarian cancer cell line, each of which was known to overexpress HSD10, and a non-cancerous cell line.
# (§2) After incubation in the drug treatment for 96 hours at 37° C., 5% CO2, the supernatant was removed from all wells of cells, and cells washed with 200 μL PBS.
# (§3) After removal of the PBS from the cell cultures described above, cell number was determined using a lysed cell LDH assay. Cells were lysed with 0.9% Triton-X in PBS for 2 hours at 37° C., 5% CO2 and 50 μL of this cell lysate was transferred to a fresh 96 well plate. About 50 μL of CytoTox 96 assay reagent was added to the transferred cell lysate and this mixture was incubated at room temperature in the dark for 20 minutes. After the addition of 50 μL stop reagent, the optical absorbance was determined for each incubated mixture at 492 nm. […] The mean and standard error was calculated from at least 3 wells.
# [3] = test system: PC3 cells; test: Cell growth inhibition, lysed cell LDH assay, prostate cancer cell line; type: cell-based
# Procedure: To determine whether Risperidone could be effective in inhibiting growth of cancer cells overexpressing HSD10, a lysed cell LDH assay was conducted using cells from a PC3 cell line.
# PC3 cells are from a cell line derived from a hormone refractory prostate cancer and are known to overexpress HSD10. […] Cells line tests were carried out in presence and absence of testosterone for comparison. After incubation in the drug treatment for 96 hours at 37° C., 5% CO2, the supernatant was removed from all wells of cells, and cells washed with 200 μL PBS.
# as §3, with “PBS,” for “PBS from the cell cultures described above,”, “assay (CytoTox 96 Non-radioactive cytotoxicity assay (LDH Assay); Promega, Co., Madison Wis.).” for “assay.”
# To determine the optimal concentration of Risperidone and CLA necessary to inhibit cell growth, a lysed cell LDH assay was conducted using various concentration of Risperidone and CLA. PC3 cells were cultured and a lysed cell LDH assay was conducted as described above, except that the various drug treatments evaluated contained either 0 μM, 12.5 μM, 25 μM, or 50 μM Risperidone in combination with 0 μM, 6.25 μM, 12.5 μM, 25 μM, 50 μM, or 100 μM CLA (see Table 3).
# as §3
# [4] = test system: VERO cells; test: Cell growth inhibition, lysed cell LDH assay, non-cancerous cell line; type: cell-based
# Procedure: as §1, §2, §3
# [5] = test system: A549 cells; test: Cell growth inhibition, lysed cell LDH assay, lung cancer cell line; type: cell-based; conditions: A549; 50 μM Risperidone and/or 50 μM CLA, 1 μM Testosterone (T) where added; 96 hours
# Procedure: To determine whether Risperidone alone, or in combination with CLA could inhibit cell growth of cells taken from a lung cancer cell line overexpressing HSD10, A549 cells were seeded at a density of 2,000 cells per well in a 96 well plate, and incubated at 37° C., 5% CO2 for 48 hours in standard growth media (DMEM nutrient media, 10% Fetal Calf Serum, 2 mM L-Glutamine). The media was then removed by pipette and replaced with the appropriate drug treatment as follows: 50 μM Risperidone in A459 treatment media (DMEM nutrient media, 125 uM fatty acid free BSA, 2 mM L-Glutamine); 50 μM CLA in A459 treatment media; 50 μM Risperidone and 50 μM CLA in A459 treatment media; 50 μM Risperidone and 1 μM Testosterone in A459 treatment media; 50 μM Risperidone, 50 μM CLA, and 1 μM Testosterone in A459 treatment media. After incubation in the drug treatment for 96 hours at 37° C., 5% CO2, the supernatant was removed from all wells of cells, and cells washed with 200 μL PBS.
# After removal of the PBS from the cell cultures described above, cell number was determined using a lysed cell LDH assay. Cells were lysed with 0.9% Triton-X in PBS for 2 hours at 37° C., 5% CO2 and 50 μL of this cell lysate was transferred to a fresh 96 well plate. About 50 μL of CytoTox 96 assay reagent was added to the transferred cell lysate and this mixture was incubated at room temperature in the dark for 20 minutes. After the addition of 50 μL stop reagent, the optical absorbance was determined for each incubated mixture at 492 nm. The percentage cell number was calculated by normalizing the experimental counts, where 100% is set to cells receiving no drug treatment, and 0% is set to readings from wells containing no cells. The mean and standard error was calculated from at least 3 wells.
# [6] = test system: BxPC-3 cells; test: Resazurin-based cell viability assay, pancreatic cancer cell line; conditions: 72 hours, combination equimolar, 100% = no drug, 0% = Paclitaxel
# Procedure: To determine whether Risperidone alone, or in combination with CLA could inhibit cell growth of cells taken from a pancreatic cancer cell line overexpressing HSD10, a resazurin-based cell viability assay was conducted on Bx-PC3 cells.
# BxPC-3 cells are from a cell line derived from a human pancreatic adenocarcinoma and are known to overexpress HSD10. BxPC-3 cells were seeded at a density of 4,000 cells per well in a 384 well plate, and incubated at 37° C., 5% CO2 for 24 hours in standard growth media (RPMI nutrient media, 5% heat-inactivated Fetal Calf Serum, 2 mM L-Glutamine). The media was then removed by pipette and replaced with 50 μL BxPC-3 treatment media comprising 125 μM fatty acid-free BSA, 2 mM L-Glutamine and one of the following drug treatments: 0.1 μM, 2 μM, or 50 μM Risperidone; 0.1 μM, 2 μM, or 50 μM CLA; or 0.1 μM, 2 μM, or 50 μM of Risperidone and CLA (in equimolar amounts). After incubation in the drug treatment for 72 hours at 37° C., 5% CO2, viable cell number was determined using a resazurin-based cell viability assay (PRESTOBLUE®; Invitrogen, Carlsbad, Calif.). To each well, 7 μL of PRESTOBLUE® reagent was added and the plates incubated for 60 minutes at 37° C., 5% CO2. After incubation, the fluorescence intensity of each well was determined using a microplate reader by excitation and 570 nm and recording emission at 600 nm. The percentage of viable cell number was calculated by normalizing the experimental fluorescence intensity, where 100% is set to cells receiving no drug treatment (cells metabolizing at optimal rate), and 0% is set to readings from cells treated with Paclitaxel (cells not metabolizing at all due to their destruction by anti-cancer drug). A value under 50% could be considered a useful indication of potential efficacy.
smiles,measurement,setting,value
"CCCCCC/C=C/C=C\CCCCCCCC(=O)O [CLA, 9Z, 11E conjugated Linoleic acid]",body weight throughout the study,[1]; by Day 40,maintained a constant weight
same,animal loss,[1]; by day 34,about 10%
same,Tumor Growth Inhibition,"[1]; calculated on Day 34, dosing per Table 7, listed as Rumenic Acid",21%
same,Animal Survival (overall survivorship),"[1]; day 40, dosing per Table 7, listed as Rumenic Acid",45%
same,Percentage of Lysed Cells,[2],87 ± 6.0%
same,Percentage of Lysed Cells,"[3]; 0 μM Risperidone, 6.25 μM CLA (Table 4)",96 ± 0.7%
same,Percentage of Lysed Cells,"[3]; 0 μM Risperidone, 12.5 μM CLA (Table 4)",90 ± 2.7%
same,Percentage of Lysed Cells,"[3]; 0 μM Risperidone, 25 μM CLA (Table 4)",112 ± 9.5%
same,Percentage of Lysed Cells,"[3]; 0 μM Risperidone, 50 μM CLA (Table 4)",103 ± 9.3%
same,Percentage of Lysed Cells,"[3]; 0 μM Risperidone, 100 μM CLA (Table 4)",66 ± 11.8%
same,Percentage of Lysed Cells,"[3]; 12.5 μM of each drug, 96 hours, 100% = no drug treatment (Table 3)",109 ± 0.56%
same,Percentage of Lysed Cells,"[3]; 25 μM of each drug, 96 hours, 100% = no drug treatment (Table 3)",112 ± 1.1%
same,growth inhibition of PC3 cells,[3]; 50 μM,no effect alone
same,Percentage of Lysed Cells,"[3]; 50 μM of each drug, 96 hours, 100% = no drug treatment (Table 3)",107 ± 2.4%
same,Percentage of Lysed Cells,"[3]; PC3, 50 μM Risperidone and/or 50 μM CLA, 1 μM Testosterone (T) where added, 96 hours (Table 5)",107 ± 2.4%
same,effect on growth of cells from the non-cancerous cell line VERO,[4]; 50 μM,neither Risperidone nor CLA had any measurable effect
same,Percentage of Lysed Cells,"[4]; VERO, 50 μM Risperidone and/or 50 μM CLA, 1 μM Testosterone (T) where added, 96 hours",98 ± 2.7%
same,Percentage of Lysed Cells,[5],4.5 ± 0.3%
same,percentage of viable cell number,[6]; 0.1 uM,103%
same,percentage of viable cell number,[6]; 2 uM,71%
same,percentage of viable cell number,[6]; 50 uM,119%
